Laboratory results reported in patent US10588316B2 (priority 2015, dated 2020).
“And” between values parts separate entries of the source, which are not always exact repeats. Equal values may be shown once. Read-outs that look alike come from different tables or passages of the source.

Columns and labels:
[1] = format: in vivo, wheat; details: in vivo
[2] = tested on: Fusarium graminearum and Fusarium asiaticum; assay: organism not typed; format: cell-based; details: read-out: inhibitory effect on the growth of the two types of Fusaria
wheat scab [3] = format: in vivo
rust [4] = format: in vivo, wheat; details: in vivo
powdery mildew [5] = format: in vivo, wheat; details: in vivo
leaf blight [6] = tested on: leaf blight; design: species or system wheat; details: in vivo
wheat scab [7] = format: in vivo; remark: listed apart in the source
[8] = tested on: carbendazim-resistant Fusarium asiaticum; assay: microbe, parasite or virus in culture; format: cell-based; details: for inhibition at 1 µg/mL / inhibition at 10 µg/mL / inhibition at 100 µg/mL / inhibition at 1000 µg/mL / inhibition at 10000 µg/mL: Fusarium asiaticum, read-out: DON Biosynthesis Inhibition Rate
wheat scab [9] = format: in vivo; details: Preparation 100 (mL/mu); Jinggangmycin 20, Tebuconazole 0 g ai. agent/mu
rust [10] = format: in vivo, wheat; details: in vivo; remark: listed apart in the source
powdery mildew [11] = format: in vivo, wheat; details: in vivo; remark: listed apart in the source
rust [12] = tested on: rust; design: species or system barley; details: in vivo
wheat scab [13] = format: in vivo; remark: listed apart in the source
wheat scab [14] = format: in vivo; details: Preparation 100 g/mu; Jinggangmycin 20, Tebuconazole 0 g ai. agent/mu
leaf blight [15] = format: in vivo, wheat; details: in vivo
powdery mildew [16] = format: in vivo, wheat; details: in vivo; remark: listed apart in the source
leaf blight [17] = format: in vivo, wheat; details: in vivo; remark: listed apart in the source
Fusarium asiaticum = assay: microbe, parasite or virus in culture; format: cell-based
[18] = format: in vivo, wheat; details: in vivo; remark: listed apart in the source
powdery mildew [19] = format: in vivo, wheat; details: in vivo; remark: listed apart in the source
powdery mildew [20] = format: in vivo, wheat; details: in vivo; remark: listed apart in the source
rust [21] = format: in vivo, wheat; details: in vivo; remark: listed apart in the source
leaf blight [22] = format: in vivo, wheat; details: in vivo; remark: listed apart in the source
rust [23] = format: in vivo, wheat; details: in vivo; remark: listed apart in the source
rust [24] = tested on: rust; design: species or system wheat; details: in vivo
Tri5 gene = format: cell-based, Fusarium asiaticum
wheat scab [25] = format: in vivo; remark: listed apart in the source
leaf rust fungus = tested on: leaf rust fungus; design: species or system wheat; details: in vivo
powdery mildew fungus = tested on: powdery mildew fungus; design: species or system wheat; details: in vivo
Fusarium graminearum = assay: microbe, parasite or virus in culture; format: cell-based; details: for Average Fungal Colony Diameter F.g: sensitive strains

OCC1=CC(N[C@H]2C[C@H](CO)[C@@H](OC3O[C@H](CO)[C@@H](O)[C@H](O)[C@H]3O)C(O)[C@H]2O)[C@H](O)[C@@H](O)C1O (stereo partly shown) [Jinggangmycin, jinggangmycin A]
Thousand Kernel Weight [1]: 38.5 g and 40.1 g and 37.8 g and 41.5 g
inhibition at 50 µg/mL [2]: 6.5 to 7.8%
Disease Index Prevention Effect % Head Blight (wheat scab [3]; Jinggangmycin 0.5 g ai. agent/mu): 0.0%
Disease Index Prevention Effect % Head Blight (wheat scab [3]; Jinggangmycin 1.0 g ai. agent/mu): 0.0%
Disease Index Prevention Effect % Head Blight (wheat scab [3]; Jinggangmycin 1.3 g ai. agent/mu): 0.0%
Disease Index Prevention Effect % Head Blight (wheat scab [3]; Jinggangmycin 2.5 g ai. agent/mu): 0.0%
Disease Index Prevention Effect % Head Blight (wheat scab [3]; Jinggangmycin 5.0 g ai. agent/mu): 0.0%
Disease Index Prevention Effect % Head Blight (wheat scab [3]; Jinggangmycin 8.0 g ai. agent/mu): 17.9%
Disease Index Prevention Effect % Head Blight (wheat scab [3]; Jinggangmycin 14.0 g ai. agent/mu): 23.7%
Disease Index Prevention Effect % Head Blight (wheat scab [3]; Jinggangmycin 16.0 g ai. agent/mu): 27.8%
Disease Index Prevention Effect % Head Blight (wheat scab [3]; Jinggangmycin 28.0 g ai. agent/mu): 29.6%
Disease Index Prevention Effect % Rust (rust [4]): 6.5%
Disease Index Prevention Effect % Powdery Mildew (powdery mildew [5]): 8.5% and 0%
Disease Index Prevention Effect % Leaf Blight (leaf blight [6]): 8.5% and 7.9% and 0%
Disease Index Prevention Effect % Head Blight (wheat scab [7]; Preparation 30 g/mu, Jinggangmycin 6 g ai. agent/mu): 7.4%
Disease Index Prevention Effect % Head Blight (wheat scab [7]; Preparation 45 g/mu, Jinggangmycin 9 g ai. agent/mu): 9.4%
Disease Index Prevention Effect % Head Blight (wheat scab [7]; Preparation 60 g/mu, Jinggangmycin 12 g ai. agent/mu): 10.2%
Disease Index Prevention Effect % Head Blight (wheat scab [7]; Preparation 75 g/mu, Jinggangmycin 15 g ai. agent/mu): 34.2%
inhibition at 1 µg/mL ([8]; 168 h): 28.6%
inhibition at 10 µg/mL ([8]; 168 h): 35.5%
inhibition at 100 µg/mL ([8]; 168 h): 45.2%
inhibition at 1000 µg/mL ([8]; 168 h): 65.5%
inhibition at 10000 µg/mL ([8]; 168 h): 75.9%
inhibition at 1 µg/mL ([8]; 336 h): 1.7%
inhibition at 10 µg/mL ([8]; 336 h): 7.87%
inhibition at 100 µg/mL ([8]; 336 h): 29.9%
inhibition at 1000 µg/mL ([8]; 336 h): 57%
inhibition at 10000 µg/mL ([8]; 336 h): 75.4%
Toxin Production Capability of Hyphae ([8]; Jinggangmycin 1 μg/ml, 7 days of culture): 62.82 μgDON/g by dry weight of hyphae
Toxin Production Capability of Hyphae ([8]; Jinggangmycin 1 μg/ml, 14 days of culture): 51.43 μgDON/g by dry weight of hyphae
Toxin Production Capability of Hyphae ([8]; Jinggangmycin 10 μg/ml, 7 days of culture): 56.76 μgDON/g by dry weight of hyphae
Toxin Production Capability of Hyphae ([8]; Jinggangmycin 10 μg/ml, 14 days of culture): 48.20 μgDON/g by dry weight of hyphae
Toxin Production Capability of Hyphae ([8]; Jinggangmycin 100 μg/ml, 7 days of culture): 48.23 μgDON/g by dry weight of hyphae
Toxin Production Capability of Hyphae ([8]; Jinggangmycin 100 μg/ml, 14 days of culture): 36.68 μgDON/g by dry weight of hyphae
Toxin Production Capability of Hyphae ([8]; Jinggangmycin 1000 μg/ml, 7 days of culture): 30.35 μgDON/g by dry weight of hyphae
Toxin Production Capability of Hyphae ([8]; Jinggangmycin 1000 μg/ml, 14 days of culture): 22.52 μgDON/g by dry weight of hyphae
Toxin Production Capability of Hyphae ([8]; Jinggangmycin 10000 μg/ml, 7 days of culture): 21.23 μgDON/g by dry weight of hyphae
Toxin Production Capability of Hyphae ([8]; Jinggangmycin 10000 μg/ml, 14 days of culture): 12.85 μgDON/g by dry weight of hyphae
Disease Index Prevention Effect % Head Blight (wheat scab [9]): 34.2%
Disease Index Prevention Effect % Rust (rust [10]): 8.9% and 0%
Disease Index Prevention Effect % Powdery Mildew (powdery mildew [11]): 10.6%
Disease Index Prevention Effect % Rust (rust [12]): 0%
Disease Index Prevention Effect % Head Blight (wheat scab [13]; Jinggangmycin 6 g ai. agent/mu): 0%
Disease Index Prevention Effect % Head Blight (wheat scab [13]; Jinggangmycin 9 g ai. agent/mu): 17.6%
Disease Index Prevention Effect % Head Blight (wheat scab [13]; Jinggangmycin 15 g ai. agent/mu): 28.3%
Disease Index Prevention Effect % Head Blight (wheat scab [13]; Jinggangmycin 21 g ai. agent/mu): 35.4%
Disease Index Prevention Effect % Head Blight (wheat scab [14]): 40.2%
Disease Index Prevention Effect % Leaf Blight (leaf blight [15]): 7.8%
Disease Index Prevention Effect % Powdery Mildew (powdery mildew [16]): 10.6%
Disease Index Prevention Effect % Leaf Blight (leaf blight [17]): 7.8%
Average Fungal Colony Diameter F.a (Fusarium asiaticum): 76.3 mm and 75.6 mm and 69.4 mm
inhibition at 50 µg/mL (Fusarium asiaticum; Fusarium asiaticum, read-out: Growth Inhibition Rate F.a): 7.8%
Thousand Kernel Weight [18]: 37.5 g and 38.6 g and 37.6 g
Disease Index Prevention Effect % Powdery Mildew (powdery mildew [19]): 8.6% and 6.6% and 3% and 1.8%
Disease Index Prevention Effect % Powdery Mildew (powdery mildew [20]): 7.3% and 4.4% and 4.5% and 0%
Disease Index Prevention Effect % Rust (rust [21]): 6.5%
Disease Index Prevention Effect % Leaf Blight (leaf blight [22]): 8.6% and 8.8% and 5.8%
Disease Index Prevention Effect % Rust (rust [23]): 6.8% and 6.5% and 0%
Disease Index Prevention Effect % Rust (rust [24]): 5.1% and 3.6% and 0%
Rate of Inhibition on Relative Expression Level of Tri5 Gene (Tri5 gene): 59% and 66% and 84% and 87% and 90%
Disease Index Prevention Effect % Head Blight (wheat scab [25]; Preparation 15 g/mu, Jinggangmycin 3 g ai. agent/mu): 0%
Disease Index Prevention Effect % Head Blight (wheat scab [25]; Preparation 37.5 g/mu, Jinggangmycin 7.5 g ai. agent/mu): 24.2%
Disease Index Prevention Effect % Head Blight (wheat scab [25]; Preparation 50 g/mu, Jinggangmycin 10 g ai. agent/mu): 32.4%
Incidence Prevention Effect % Rust (leaf rust fungus): 0% and 4.5%
Incidence Prevention Effect % Powdery Mildew (powdery mildew fungus): 0% and 6.5%
inhibition at 50 µg/mL (Fusarium graminearum; Fusarium graminearum, read-out: Growth Inhibition Rate F.g): 6.6%
Average Fungal Colony Diameter F.g (Fusarium graminearum; Jinggangmycin A 0.1 μg/mL): 76.3 mm
Average Fungal Colony Diameter F.g (Fusarium graminearum; Jinggangmycin A 1.0 μg/mL): 76.2 mm
Average Fungal Colony Diameter F.g (Fusarium graminearum; Jinggangmycin A 10.0 μg/mL): 75.4 mm
Average Fungal Colony Diameter F.g (Fusarium graminearum; Jinggangmycin A 50.0 μg/mL): 70.3 mm
